Test [1] addresses acetylcholinesterase (AChE) (Electrophorus electricus, UniProt O42275). The test is described as follows: modified Ellman spectrophotometric assay. It counts as biochemical. (In general: In Ellman's method for cholinesterases, released thiocholine reacts with DTNB.)
Test [2] concerns the target butyrylcholinesterase (BChE) (Equus caballus, UniProt P81908). As to the kind of experiment: modified Ellman spectrophotometric assay. The format is biochemical.

Broadly, the IC50 is the concentration that inhibits the measured activity by half. Lower therefore signals higher potency.

The structures appear in SMILES notation.

Sequence of acetylcholinesterase (AChE) (O42275 24-633): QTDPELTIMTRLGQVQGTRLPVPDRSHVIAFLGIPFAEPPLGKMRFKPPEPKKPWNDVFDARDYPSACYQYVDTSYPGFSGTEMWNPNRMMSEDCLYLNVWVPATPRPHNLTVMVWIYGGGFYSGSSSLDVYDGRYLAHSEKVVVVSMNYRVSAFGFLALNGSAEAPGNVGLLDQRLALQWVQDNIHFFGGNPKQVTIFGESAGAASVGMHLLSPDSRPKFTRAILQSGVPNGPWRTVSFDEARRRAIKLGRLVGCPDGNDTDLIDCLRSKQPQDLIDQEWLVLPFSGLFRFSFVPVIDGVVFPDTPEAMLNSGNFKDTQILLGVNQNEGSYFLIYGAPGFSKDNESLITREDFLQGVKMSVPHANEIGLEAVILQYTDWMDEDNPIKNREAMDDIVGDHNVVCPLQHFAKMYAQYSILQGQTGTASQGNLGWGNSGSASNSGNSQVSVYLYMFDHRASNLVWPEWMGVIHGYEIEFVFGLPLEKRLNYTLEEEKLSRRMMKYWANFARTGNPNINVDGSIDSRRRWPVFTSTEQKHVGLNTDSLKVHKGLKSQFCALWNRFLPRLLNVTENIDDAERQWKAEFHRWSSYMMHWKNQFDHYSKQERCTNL
Sequence of butyrylcholinesterase (BChE) (P81908 whole entry): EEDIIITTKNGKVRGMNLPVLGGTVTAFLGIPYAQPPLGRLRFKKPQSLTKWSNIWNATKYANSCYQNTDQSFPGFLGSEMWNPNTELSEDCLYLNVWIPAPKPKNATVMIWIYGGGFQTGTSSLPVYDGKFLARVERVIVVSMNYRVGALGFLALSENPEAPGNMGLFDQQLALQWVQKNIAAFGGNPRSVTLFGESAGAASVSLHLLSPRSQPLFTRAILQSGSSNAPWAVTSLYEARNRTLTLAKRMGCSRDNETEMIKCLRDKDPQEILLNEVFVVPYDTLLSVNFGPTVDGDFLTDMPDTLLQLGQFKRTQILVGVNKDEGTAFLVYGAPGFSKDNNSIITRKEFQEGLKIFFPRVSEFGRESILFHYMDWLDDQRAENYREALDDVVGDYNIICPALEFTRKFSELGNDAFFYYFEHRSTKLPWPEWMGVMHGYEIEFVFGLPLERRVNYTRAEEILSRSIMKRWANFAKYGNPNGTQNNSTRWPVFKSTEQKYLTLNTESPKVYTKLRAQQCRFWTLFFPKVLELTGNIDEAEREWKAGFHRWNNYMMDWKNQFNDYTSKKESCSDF

Regarding `C[C@@H]1O[C@@H](O[C@H]2C(=O)c3c(O)cc(O)cc3O[C@@H]2c2cc(O)c(O)c(O)c2)[C@H](O)[C@H](O)[C@H]1O` [compound 1, dihydromyricetin 3-O-rhamnoside], the figures for the IC50 in test [1] and in test [2] were 70 ± 8 µM and 71 ± 4 µM, respectively.

The values are drawn from publication PMC9626498 (Scientific Reports, 2022).
